Literature values in patent US20040147581A1, “Method of using a Cox-2 inhibitor and a 5-HT1A receptor modulator as a combination therapy” (Pharmacia Corporation, priority 2002, published 2004).

System: fibroblast growth factor-induced corneal angiogenesis
Conditions: rats

Cc1ccc(-c2cc(C(F)(F)F)nn2-c2ccc(S(N)(=O)=O)cc2)cc1 [Celecoxib, celecoxib]
inhibition of fibroblast growth factor-induced corneal angiogenesis: potent inhibition
